# Target: Apolipoprotein L1 (Homo sapiens, UniProt O14791)
# Assay: Inhibition of APOL1 G1 variant in human HEK293-T-REx cells measured by Thallium assay
# Format: cell-based
row,Compound,IC50 [nM]
1,O=C(NCC1CC(F)(F)C1)C1CC(Cc2c(-c3ccc(F)cc3)[nH]c3c(F)cc(F)cc23)C1 (configuration not stated),> 1000
2,CS(=O)(=O)CCNC(=O)C1CC(Cc2c(-c3ccc(F)cc3)[nH]c3c(F)cc(F)cc23)C1 (configuration not stated),> 1000
3,O=C(NCC1CCCO1)C1CC(Cc2c(-c3ccc(F)cc3)[nH]c3c(F)cc(F)cc23)C1 (configuration not stated),> 1000
4,Cn1cnc(CNC(=O)C2CC(Cc3c(-c4ccc(F)cc4)[nH]c4c(F)cc(F)cc34)C2)c1 (configuration not stated),> 1000
5,O=C(NCc1ccc[nH]c1=O)C1CC(Cc2c(-c3ccc(F)cc3)[nH]c3c(F)cc(F)cc23)C1 (configuration not stated),> 1000
6,C[C@H](O)CNC(=O)O[C@H]1C[C@H](c2c(-c3ccc(F)cc3)[nH]c3c(F)cc(F)cc32)C1,> 1000
7,CO[C@H]1C[C@@H](NC(=O)O[C@H]2C[C@H](c3c(-c4ccc(F)cc4)[nH]c4c(F)cc(F)cc43)C2)C1,> 1000
8,CC(NC(=O)C1CC(Cc2c(-c3ccc(F)cc3)[nH]c3c(F)cc(F)cc23)C1)C1CCOC1 (configuration not stated),> 1000
9,O=C(NCCO)NC[C@H]1C[C@H](c2c(-c3ccc(F)cc3)[nH]c3c(F)cc(F)cc32)C1,> 1000
10,O=C(N[C@H]1CCOC1)O[C@H]1C[C@H](c2c(-c3ccc(F)cc3)[nH]c3c(F)cc(F)cc32)C1,> 1000
11,C[C@@H](O)CNC(=O)O[C@H]1C[C@H](c2c(-c3ccc(F)cc3)[nH]c3c(F)cc(F)cc32)C1,> 1000
12,COC1CC1NC(=O)O[C@H]1C[C@H](c2c(-c3ccc(F)cc3)[nH]c3c(F)cc(F)cc32)C1 (some centres not stated),> 1000
13,COCC1(CNC(=O)C2CC(Cc3c(-c4ccc(F)cc4)[nH]c4c(F)cc(F)cc34)C2)CC1 (configuration not stated),> 1000
14,CC(C)[C@@H](CO)NC(=O)O[C@H]1C[C@H](c2c(-c3ccc(F)cc3)[nH]c3c(F)cc(F)cc32)C1,> 1000
15,O=C(NCC1CCOC1)O[C@H]1C[C@H](c2c(-c3ccc(F)cc3)[nH]c3c(F)cc(F)cc32)C1 (some centres not stated),> 1000
16,CC1(O)CC(NC(=O)O[C@H]2C[C@H](c3c(-c4ccc(F)cc4)[nH]c4c(F)cc(F)cc43)C2)C1 (some centres not stated),> 1000
17,O=C(NCc1cocn1)C1CC(Cc2c(-c3ccc(F)cc3)[nH]c3c(F)cc(F)cc23)C1 (configuration not stated),> 1000
18,CC(C)C(CO)NC(=O)O[C@H]1C[C@H](c2c(-c3ccc(F)cc3)[nH]c3c(F)cc(F)cc32)C1 (some centres not stated),> 1000

row,Compound,IC50 [nM]
1,CC1(O)CC(NC(=O)C2CC(Cc3c(-c4ccc(F)cc4)[nH]c4c(F)cc(F)cc34)C2)C1 (configuration not stated),> 1000
2,O=C(NC1CCOC1)O[C@H]1C[C@H](c2c(-c3ccc(F)cc3)[nH]c3c(F)cc(F)cc32)C1 (some centres not stated),> 1000
3,O=C(NCc1ncc[nH]1)C1CC(Cc2c(-c3ccc(F)cc3)[nH]c3c(F)cc(F)cc23)C1 (configuration not stated),> 1000
4,Cc1cnc(CNC(=O)O[C@H]2C[C@H](c3c(-c4ccc(F)cc4)[nH]c4c(F)cc(F)cc43)C2)o1,> 1000
5,CC(C)(O)CNC(=O)C1CC(Cc2c(-c3ccc(F)cc3)[nH]c3c(F)cc(F)cc23)C1 (configuration not stated),> 1000
6,O=C(NCC1(CO)CC1)C1CC(Cc2c(-c3ccc(F)cc3)[nH]c3c(F)cc(F)cc23)C1 (configuration not stated),> 1000
7,O=C(NCc1cnn(CC(F)(F)F)c1)C1CC(Cc2c(-c3ccc(F)cc3)[nH]c3c(F)cc(F)cc23)C1 (configuration not stated),> 1000
8,O=C(NCc1ncc[nH]1)O[C@H]1C[C@H](c2c(-c3ccc(F)cc3)[nH]c3c(F)cc(F)cc32)C1,> 1000
9,C[C@@H](O)[C@@H](CO)NC(=O)O[C@H]1C[C@H](c2c(-c3ccc(F)cc3)[nH]c3c(F)cc(F)cc32)C1,> 1000
10,O=C(NCC1CCOCC1)C1CC(Cc2c(-c3ccc(F)cc3)[nH]c3c(F)cc(F)cc23)C1 (configuration not stated),> 1000
11,Cn1ccnc1CNC(=O)C1CC(Cc2c(-c3ccc(F)cc3)[nH]c3c(F)cc(F)cc23)C1 (configuration not stated),> 1000
12,O=C(NC[C@H]1C[C@H](c2c(-c3ccc(F)cc3)[nH]c3c(F)cc(F)cc32)C1)N[C@H]1CC[C@H]1O,> 1000
13,O=C(NCc1cn(CC(F)(F)F)cn1)O[C@H]1C[C@H](c2c(-c3ccc(F)cc3)[nH]c3c(F)cc(F)cc32)C1,> 1000
14,Cn1cncc1CNC(=O)C1CC(Cc2c(-c3ccc(F)cc3)[nH]c3c(F)cc(F)cc23)C1 (configuration not stated),> 1000
15,O=C(N[C@H](CO)C(F)(F)F)O[C@H]1C[C@H](c2c(-c3ccc(F)cc3)[nH]c3c(F)cc(F)cc32)C1,> 1000
16,CC(O)(CO)CNC(=O)O[C@H]1C[C@H](c2c(-c3ccc(F)cc3)[nH]c3c(F)cc(F)cc32)C1 (some centres not stated),> 1000
17,Cc1cc(CNC(=O)O[C@H]2C[C@H](c3c(-c4ccc(F)cc4)[nH]c4c(F)cc(F)cc43)C2)on1,> 1000
18,O=C(NCc1ccc(=O)[nH]c1)C1CC(Cc2c(-c3ccc(F)cc3)[nH]c3c(F)cc(F)cc23)C1 (configuration not stated),> 1000

# Other lines, results leading:
row,IC50 [nM],Compound
1,> 1000,C[C@H](O)[C@H](CO)NC(=O)O[C@H]1C[C@H](c2c(-c3ccc(F)cc3)[nH]c3c(F)cc(F)cc32)C1
2,> 1000,CC(O)(CO)CNC(=O)C1CC(Cc2c(-c3ccc(F)cc3)[nH]c3c(F)cc(F)cc23)C1 (configuration not stated)
3,0.25,O=C(NCCO)O[C@H]1C[C@H](c2c(-c3ccc(F)cc3)[nH]c3c(F)cc(F)cc32)C1
4,> 1000,O=C(NCC(O)CO)O[C@H]1C[C@H](c2c(-c3ccc(F)cc3)[nH]c3c(F)cc(F)cc32)C1 (some centres not stated)
5,> 1000,CCC(O)CNC(=O)O[C@H]1C[C@H](c2c(-c3ccc(F)cc3)[nH]c3c(F)cc(F)cc32)C1 (some centres not stated)
6,> 1000,CC(NC(=O)C1CC(Cc2c(-c3ccc(F)cc3)[nH]c3c(F)cc(F)cc23)C1)c1ccn(C)n1 (configuration not stated)
7,> 1000,Cn1cnc(CNC(=O)O[C@H]2C[C@H](c3c(-c4ccc(F)cc4)[nH]c4c(F)cc(F)cc43)C2)c1
8,> 1000,Cc1nn(C)cc1CNC(=O)C1CC(Cc2c(-c3ccc(F)cc3)[nH]c3c(F)cc(F)cc23)C1 (configuration not stated)
9,0.25,O=C(NC1CC1)O[C@H]1C[C@H](c2c(-c3ccc(F)cc3)[nH]c3c(F)cc(F)cc32)C1
10,> 1000,O=C(Nc1ccc[nH]c1=O)C1CC(Cc2c(-c3ccc(F)cc3)[nH]c3c(F)cc(F)cc23)C1 (configuration not stated)
11,0.25,O=C(NCc1cnco1)O[C@H]1C[C@H](c2c(-c3ccc(F)cc3)[nH]c3c(F)cc(F)cc32)C1
12,> 1000,Cn1cc(CNC(=O)O[C@H]2C[C@H](c3c(-c4ccc(F)cc4)[nH]c4c(F)cc(F)cc43)C2)nn1
13,> 1000,CC(O)C(C)NC(=O)O[C@H]1C[C@H](c2c(-c3ccc(F)cc3)[nH]c3c(F)cc(F)cc32)C1 (some centres not stated)
14,0.25,COCC(C)NC(=O)O[C@H]1C[C@H](c2c(-c3ccc(F)cc3)[nH]c3c(F)cc(F)cc32)C1 (some centres not stated)
15,> 1000,O=C1CC(CNC(=O)C2CC(Cc3c(-c4ccc(F)cc4)[nH]c4c(F)cc(F)cc34)C2)CN1 (configuration not stated)
16,> 1000,O=C(NCC1CC1)O[C@H]1C[C@H](c2c(-c3ccc(F)cc3)[nH]c3c(F)cc(F)cc32)C1
17,0.25,CC(CO)NC(=O)O[C@H]1C[C@H](c2c(-c3ccc(F)cc3)[nH]c3c(F)cc(F)cc32)C1 (some centres not stated)
18,> 1000,COC[C@H](C)NC(=O)O[C@H]1C[C@H](c2c(-c3ccc(F)cc3)[nH]c3c(F)cc(F)cc32)C1
19,> 1000,Cc1cc(CNC(=O)C2CC(Cc3c(-c4ccc(F)cc4)[nH]c4c(F)cc(F)cc34)C2)nn1C (configuration not stated)
20,> 1000,O=C(NCC1(O)CCC1)C1CC(Cc2c(-c3ccc(F)cc3)[nH]c3c(F)cc(F)cc23)C1 (configuration not stated)
21,0.25,O=C(NCC(F)F)O[C@H]1C[C@H](c2c(-c3ccc(F)cc3)[nH]c3c(F)cc(F)cc32)C1
22,> 1000,Cn1cc(CNC(=O)C2CC(Cc3c(-c4ccc(F)cc4)[nH]c4c(F)cc(F)cc34)C2)cn1 (configuration not stated)
23,> 1000,CC(C)(O)CCNC(=O)C1CC(Cc2c(-c3ccc(F)cc3)[nH]c3c(F)cc(F)cc23)C1 (configuration not stated)

row,IC50 [nM],Compound
1,> 1000,CC(=O)NCCNC(=O)C1CC(Cc2c(-c3ccc(F)cc3)[nH]c3c(F)cc(F)cc23)C1 (configuration not stated)
2,> 1000,CC1CC(NC(=O)NC[C@H]2C[C@H](c3c(-c4ccc(F)cc4)[nH]c4c(F)cc(F)cc43)C2)C(=O)O1 (some centres not stated)
3,> 1000,O=C(NCc1ccoc1)C1CC(Cc2c(-c3ccc(F)cc3)[nH]c3c(F)cc(F)cc23)C1 (configuration not stated)
4,> 1000,O=C(NCc1ccco1)O[C@H]1C[C@H](c2c(-c3ccc(F)cc3)[nH]c3c(F)cc(F)cc32)C1
5,> 1000,COC1(CNC(=O)C2CC(Cc3c(-c4ccc(F)cc4)[nH]c4c(F)cc(F)cc34)C2)CCOC1 (configuration not stated)
6,> 1000,O=C(NCC1(O)CCCC1)C1CC(Cc2c(-c3ccc(F)cc3)[nH]c3c(F)cc(F)cc23)C1 (configuration not stated)
7,> 1000,CC(C)C[C@@H](CO)NC(=O)C1CC(Cc2c(-c3ccc(F)cc3)[nH]c3c(F)cc(F)cc23)C1 (some centres not stated)
8,0.25,CNC(=O)NC[C@H]1C[C@H](c2c(-c3ccc(F)cc3)[nH]c3c(F)cc(F)cc32)C1
9,> 1000,CC1(CNC(=O)C2CC(Cc3c(-c4ccc(F)cc4)[nH]c4c(F)cc(F)cc34)C2)CCOC1 (configuration not stated)
10,> 1000,O=C(NC1CC(O)C1)O[C@H]1C[C@H](c2c(-c3ccc(F)cc3)[nH]c3c(F)cc(F)cc32)C1 (some centres not stated)
11,> 1000,O=C(NCc1cnco1)C1CC(Cc2c(-c3ccc(F)cc3)[nH]c3c(F)cc(F)cc23)C1 (configuration not stated)
12,> 1000,O=C(NCC1CCOC1)C1CC(Cc2c(-c3ccc(F)cc3)[nH]c3c(F)cc(F)cc23)C1 (configuration not stated)
13,> 1000,CC1(NC(=O)C2CC(Cc3c(-c4ccc(F)cc4)[nH]c4c(F)cc(F)cc34)C2)CCOC1 (configuration not stated)
14,> 1000,C[C@H](NC(=O)C1CC(Cc2c(-c3ccc(F)cc3)[nH]c3c(F)cc(F)cc23)C1)C(C)(C)O (some centres not stated)
15,> 1000,O=C(N[C@H]1COC[C@@H]1O)O[C@H]1C[C@H](c2c(-c3ccc(F)cc3)[nH]c3c(F)cc(F)cc32)C1
16,> 1000,CC1(C)CC(C)(NC(=O)NC[C@H]2C[C@H](c3c(-c4ccc(F)cc4)[nH]c4c(F)cc(F)cc43)C2)C(=O)O1 (some centres not stated)
17,> 1000,Cc1ccc(CNC(=O)O[C@H]2C[C@H](c3c(-c4ccc(F)cc4)[nH]c4c(F)cc(F)cc43)C2)o1
18,0.25,C[C@H](CO)NC(=O)O[C@H]1C[C@H](c2c(-c3ccc(F)cc3)[nH]c3c(F)cc(F)cc32)C1
19,< 250,NC(=O)CNC(=O)O[C@H]1C[C@H](c2c(-c3ccc(F)cc3)[nH]c3c(F)cc(F)cc32)C1
20,< 250,O=C(NC(CO)(CO)CO)O[C@H]1C[C@H](c2c(-c3ccc(F)cc3)[nH]c3c(F)cc(F)cc32)C1
21,0.25,O=C(N[C@@H]1CCNC1=O)O[C@H]1C[C@H](c2c(-c3ccc(F)cc3)[nH]c3c(F)cc(F)cc32)C1
22,0.25,CC(C)(CO)NC(=O)O[C@H]1C[C@H](c2c(-c3ccc(F)cc3)[nH]c3c(F)cc(F)cc32)C1
23,0.25,C[C@@H](CO)NC(=O)O[C@H]1C[C@H](c2c(-c3ccc(F)cc3)[nH]c3c(F)cc(F)cc32)C1

# From ChEMBL document CHEMBL5052856, “Inhibitors of apol1 and methods of using same” (2021)
